Data published in patent US6667387B1, “HCV core peptides” (priority 1992, dated 2003).
Ends that are not written are not given here.

Experiments:
[1] = tested on: antibodies in sera from HCV-seropositive donors; assay: ELISA with HCV antibody-positive sera (biotinylated peptides on streptavidin- or avidin-coated plates, unbiotinylated peptides coated directly); type: binding, human
Summary of the method: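 Peptides coated either directly at 2–5 or 3 μg/ml in carbonate buffer pH 9.6, or biotinylated at 1 μg/ml on streptavidin-coated wells (3 μg/ml). Plates casein-blocked, then human sera (1:100 or 1:20) incubated 1 h at 37° C. Bound antibody detected with HRP anti-human Ig/TMB, read as OD450.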

[2] = ELISA with seronegative / negative control sera (specificity); type: binding, human
Summary of the method: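 Specificity readout is OD at 450 nm (HRP goat anti-human Ig, TMB/H2O2, sulfuric acid stop), with ≥0.250 counted positive. Seronegative donor sera (typically 1:100, 1 h, 37° C) were applied to casein-blocked wells coated with peptide directly or via streptavidin capture of biotinylated peptide.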

PQRKTKRNTNRRPQDVKFPG
optical density (450 nm) ([1]; Table 4C, serum 8241, 20-fold dilution): 0.444 | optical density (450 nm) ([1]; Table 4C, serum 8242, 20-fold dilution): 1.682 | optical density (450 nm) ([1]; Table 4C, serum 8243, 20-fold dilution): 2.181 | optical density (450 nm) ([1]; Table 4C, serum 8247, 20-fold dilution): 1.518 | optical density (450 nm) ([1]; Table 4C, serum 8250, 20-fold dilution): 0.110 | optical density (450 nm) ([1]; Table 4C, serum 8271, 20-fold dilution): 0.912 | optical density (450 nm) ([1]; Table 4C, serum 8273, 20-fold dilution): 2.468 | optical density (450 nm) ([1]; Table 4C, serum 8274, 20-fold dilution): 2.700 | optical density (450 nm) ([1]; Table 4C, serum 8275, 20-fold dilution): 1.489 | optical density (450 nm) ([1]; Table 4C, serum 8276, 20-fold dilution): 2.133 | optical density (450 nm) ([1]; Table 4C, serum 8277, 20-fold dilution): 1.771 | optical density (450 nm) ([1]; Table 4C, serum 8278, 20-fold dilution): 1.907 | optical density (450 nm) ([1]; Table 5, sample 8242 (positive), peptide concentration 0.01 micrograms per milliliter, listed as Unbiotinylated HCV peptide II): 0.051 | optical density (450 nm) ([1]; Table 5, sample 8242 (positive), peptide concentration 0.03 micrograms per milliliter, listed as Unbiotinylated HCV peptide II): 0.048 | optical density (450 nm) ([1]; Table 5, sample 8242 (positive), peptide concentration 0.1 micrograms per milliliter, listed as Unbiotinylated HCV peptide II): 0.058 | optical density (450 nm) ([1]; Table 5, sample 8242 (positive), peptide concentration 0.3 micrograms per milliliter, listed as Unbiotinylated HCV peptide II): 0.234 | optical density (450 nm) ([1]; Table 5, sample 8242 (positive), peptide concentration 1.0 micrograms per milliliter, listed as Unbiotinylated HCV peptide II): 0.408 | optical density (450 nm) ([1]; Table 5, sample 8242 (positive), peptide concentration 3.0 micrograms per milliliter, listed as Unbiotinylated HCV peptide II): 0.539 | optical density (450 nm) ([1]; Table 5, sample 8243 (positive), peptide concentration 0.01 micrograms per milliliter, listed as Unbiotinylated HCV peptide II): 0.056 | optical density (450 nm) ([1]; Table 5, sample 8243 (positive), peptide concentration 0.03 micrograms per milliliter, listed as Unbiotinylated HCV peptide II): 0.057 | optical density (450 nm) ([1]; Table 5, sample 8243 (positive), peptide concentration 0.1 micrograms per milliliter, listed as Unbiotinylated HCV peptide II): 0.181 | optical density (450 nm) ([1]; Table 5, sample 8243 (positive), peptide concentration 0.3 micrograms per milliliter, listed as Unbiotinylated HCV peptide II): 0.831 | optical density (450 nm) ([1]; Table 5, sample 8243 (positive), peptide concentration 1.0 micrograms per milliliter, listed as Unbiotinylated HCV peptide II): 1.221 | optical density (450 nm) ([1]; Table 5, sample 8243 (positive), peptide concentration 3.0 micrograms per milliliter, listed as Unbiotinylated HCV peptide II): 1.341 | optical density (450 nm) ([1]; Table 5, sample 8318 (positive), peptide concentration 0.01 micrograms per milliliter, listed as Unbiotinylated HCV peptide II): 0.048 | optical density (450 nm) ([1]; Table 5, sample 8318 (positive), peptide concentration 0.03 micrograms per milliliter, listed as Unbiotinylated HCV peptide II): 0.095 | optical density (450 nm) ([1]; Table 5, sample 8318 (positive), peptide concentration 0.1 micrograms per milliliter, listed as Unbiotinylated HCV peptide II): 0.181 | optical density (450 nm) ([1]; Table 5, sample 8318 (positive), peptide concentration 0.3 micrograms per milliliter, listed as Unbiotinylated HCV peptide II): 0.347 | optical density (450 nm) ([1]; Table 5, sample 8318 (positive), peptide concentration 1.0 micrograms per milliliter, listed as Unbiotinylated HCV peptide II): 0.626 | optical density (450 nm) ([1]; Table 5, sample 8318 (positive), peptide concentration 3.0 micrograms per milliliter, listed as Unbiotinylated HCV peptide II): 0.791 | optical density (450 nm) ([1]; Table 5, sample 8320 (positive), peptide concentration 0.01 micrograms per milliliter, listed as Unbiotinylated HCV peptide II): 0.479 | optical density (450 nm) ([1]; Table 5, sample 8320 (positive), peptide concentration 0.03 micrograms per milliliter, listed as Unbiotinylated HCV peptide II): 1.272 | optical density (450 nm) ([1]; Table 5, sample 8320 (positive), peptide concentration 0.1 micrograms per milliliter, listed as Unbiotinylated HCV peptide II): 1.828 | optical density (450 nm) ([1]; Table 5, sample 8320 (positive), peptide concentration 0.3 micrograms per milliliter, listed as Unbiotinylated HCV peptide II): 2.004 | optical density (450 nm) ([1]; Table 5, sample 8320 (positive), peptide concentration 1.0 micrograms per milliliter, listed as Unbiotinylated HCV peptide II): 2.163 | optical density (450 nm) ([1]; Table 5, sample 8320 (positive), peptide concentration 3.0 micrograms per milliliter, listed as Unbiotinylated HCV peptide II): 2.278 | optical density (450 nm) ([2]; Table 4C, negative serum): 0.047 | optical density (450 nm) ([2]; Table 5, sample 1747 (negative), peptide concentration 0.01 micrograms per milliliter, listed as Unbiotinylated HCV peptide II): 0.041 | optical density (450 nm) ([2]; Table 5, sample 1747 (negative), peptide concentration 0.03 micrograms per milliliter, listed as Unbiotinylated HCV peptide II): 0.043 | optical density (450 nm) ([2]; Table 5, sample 1747 (negative), peptide concentration 0.1 micrograms per milliliter, listed as Unbiotinylated HCV peptide II): 0.044 | optical density (450 nm) ([2]; Table 5, sample 1747 (negative), peptide concentration 0.3 micrograms per milliliter, listed as Unbiotinylated HCV peptide II): 0.041 | optical density (450 nm) ([2]; Table 5, sample 1747 (negative), peptide concentration 1.0 micrograms per milliliter, listed as Unbiotinylated HCV peptide II): 0.046 | optical density (450 nm) ([2]; Table 5, sample 1747 (negative), peptide concentration 3.0 micrograms per milliliter, listed as Unbiotinylated HCV peptide II): 0.049 | optical density (450 nm) ([2]; Table 5, sample 1781 (negative), peptide concentration 0.01 micrograms per milliliter, listed as Unbiotinylated HCV peptide II): 0.046 | optical density (450 nm) ([2]; Table 5, sample 1781 (negative), peptide concentration 0.03 micrograms per milliliter, listed as Unbiotinylated HCV peptide II): 0.053 | optical density (450 nm) ([2]; Table 5, sample 1781 (negative), peptide concentration 0.1 micrograms per milliliter, listed as Unbiotinylated HCV peptide II): 0.046 | optical density (450 nm) ([2]; Table 5, sample 1781 (negative), peptide concentration 0.3 micrograms per milliliter, listed as Unbiotinylated HCV peptide II): 0.045 | optical density (450 nm) ([2]; Table 5, sample 1781 (negative), peptide concentration 1.0 micrograms per milliliter, listed as Unbiotinylated HCV peptide II): 0.053 | optical density (450 nm) ([2]; Table 5, sample 1781 (negative), peptide concentration 3.0 micrograms per milliliter, listed as Unbiotinylated HCV peptide II): 0.053
